The record followed here is patent US20260022143A1, “Cyclic Peptide Inhibitors of IL-23” (JANSSEN PHARMACEUTICA NV, priority 2022, published 2026).

Starred links: 1 amine or outer side, 2 acyl side, 3 side chain; linkers in the order of their positions; H or OH if unused. Positions of bridges follow the written chain, without caps; N, C: chain ends. Non-standard residues stand in square brackets, D forms with d. Residues, ends and D or L forms follow the SMILES beside them. *: point of attachment. X16 = C[N+](C)(C)Cc1cn(-c2ccc(C[C@H](N[*:1])C(=O)[*:2])cc2)nn1; Me3N+CH2CH2(OCH2CH2)4CO = C[N+](C)(C)CCOCCOCCOCCOCCC(=O)*; Me3N+(CH2)2O(CH2)2O(CH2)2CO = C[N+](C)(C)CCOCCOCCC(=O)*; X39 = NCCc1cn(-c2ccc(C[C@H](N[*:1])C(=O)[*:2])cc2)nn1; CH2CH2OCH2CH2OCH2CH2NMe3+ = C[N+](C)(C)CCOCCOCC*; Trp(7-Me) = Cc1cccc2c(C[C@H](N)C(=O)O)c[nH]c12; Abu(4-yl) = O=C([C@H](CC[*:3])N[*:1])[*:2]; Decanoyl(3,6,9-trioxa) = COCCOCCOCC(=O)*; X1 = CN(CC[C@H](N[*:1])C(=O)[*:2])[*:3]; 2Nal = N[C@@H](Cc1ccc2ccccc2c1)C(=O)O; AEF = NCCOc1ccc(C[C@H](N)C(=O)O)cc1; X24 = C[N+](C)(CCN[*:1])CC(=O)[*:2]; X50 = CCCC[N+](CCCC)(CCCC)CCOCCOCC*; 3Pal = N[C@@H](Cc1cccnc1)C(=O)O; Lys(Me) = CNCCCC[C@H](N)C(=O)O; X5 = C[N+](C)(C)CCOCCOCC(=O)*; Pen = CC(C)(S)[C@H](N)C(=O)O; αMeC = C[C@](N)(CS)C(=O)O; Thp = NC1(C(=O)O)CCOCC1; X3 = C[N+](C)(C)CCCCC*; Sar = CNCC(=O)O

Data set [1] in a line: Exposed Polar Surface Area (EPSA). As to conditions: SFC on Chirex 3014 column; sample 1 mM DMSO stock; read-out: EPSA. The class given is physicochemical. An outline of the steps: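 Retention-based polarity: supercritical CO2 with 20 mM ammonium formate in MeOH (5–60%, 20%/min), Chirex 3014 column, 35 °C. Calibrated against 8 standards to give EPSA (Å^2); each sample measured twice.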

A further data set has as its target T1, IL-23R (Homo sapiens, UniProt Q5VWK5).
T1 construct: host or cells: HEK293
T1 sequence (Q5VWK5 24-629): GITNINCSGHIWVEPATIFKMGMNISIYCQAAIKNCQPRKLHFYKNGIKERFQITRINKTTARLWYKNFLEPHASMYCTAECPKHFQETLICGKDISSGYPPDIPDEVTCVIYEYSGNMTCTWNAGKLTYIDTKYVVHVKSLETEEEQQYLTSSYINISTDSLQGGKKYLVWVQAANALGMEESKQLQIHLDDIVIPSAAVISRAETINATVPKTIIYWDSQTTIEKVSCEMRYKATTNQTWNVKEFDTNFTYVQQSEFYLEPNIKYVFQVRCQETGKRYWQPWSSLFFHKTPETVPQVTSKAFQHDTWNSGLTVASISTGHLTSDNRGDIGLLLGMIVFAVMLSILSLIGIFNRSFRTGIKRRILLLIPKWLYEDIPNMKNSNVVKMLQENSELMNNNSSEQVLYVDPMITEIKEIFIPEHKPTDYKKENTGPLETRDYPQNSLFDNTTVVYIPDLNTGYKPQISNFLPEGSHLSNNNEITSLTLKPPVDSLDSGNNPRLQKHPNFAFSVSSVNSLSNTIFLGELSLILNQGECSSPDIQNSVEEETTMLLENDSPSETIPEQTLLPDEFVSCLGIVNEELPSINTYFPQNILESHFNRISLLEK
Nature of the data set: IL23R Reporter Assay. The class given is cell-based. Particulars: HEK293 cells containing IL-23R, IL-12RP1 and STAT-inducible firefly luciferase reporter; 10 ng/mL IL-23 (EC90); 5 h at 37° C.; read-out: IL23R Reporter Assay. In general terms: In a reporter assay the amount or activity of a reporter protein is the signal.

Take `CC(=O)NCCCC[C@@H]1NC(=O)[C@H](Cc2c[nH]c3c(C)cccc23)NC(=O)[C@H]([C@@H](C)O)NC(=O)[C@H](CC(N)=O)NC(=O)[C@@H](NC(=O)CCOCCOCC[N+](C)(C)C)C(C)(C)SSC(C)(C)[C@@H](C(=O)N[C@@H](Cc2ccc(-n3cc(C[N+](C)(C)C)nn3)cc2)C(=O)N[C@@H](Cc2ccc3ccccc3c2)C(=O)NC2(C(=O)N[C@@H](CCCCNC(C)=O)C(=O)N[C@@H](CC(N)=O)C(=O)N[C@@H](Cc3cccnc3)C(=O)N(C)CC(N)=O)CCOCC2)NC1=O` [compound 438, cPEG3aCO-Pen(3)-N-T-7MeW-K(Ac)-Pen(3)-F(4TzlTMA1)-2Nal-THP-K(Ac)-N-3Pya-Sar-CONH2] ({Me3N+(CH2)2O(CH2)2O(CH2)2CO}-[Pen]NT[Trp(7-Me)]K(Ac)[Pen][X16][2Nal][Thp]K(Ac)N[3Pal][Sar]-NH2; disulfide 1-6): the EPSA in data set [1] turned out to be 167 A^2. Besides, the IC50 at IL-23R came to 3.4 nM.
On to `COCCOCCOCC(=O)NCC[N+](C)(C)CC(=O)N[C@@H]1C(=O)N[C@@H](CC(=O)N(C)C)C(=O)N[C@@H]([C@@H](C)O)C(=O)N[C@@H](Cc2c[nH]c3c(C)cccc23)C(=O)N[C@@H](CCCCN(C)C(C)=O)C(=O)N[C@H](C(=O)N[C@@H](Cc2ccc(OCCOCCOCC[N+](C)(C)C)cc2)C(=O)N[C@@H](Cc2ccc3ccccc3c2)C(=O)NC2(C(=O)N[C@@H](CCCCN(C)C(C)=O)C(=O)N[C@@H](CC(N)=O)C(=O)N[C@@H](Cc3cccnc3)C(=O)N(C)CC(=O)N(C)C)CCOCC2)C(C)(C)SSC1(C)C` [compound 225, mPEG3CO-SP6-Pen(3)-N(N(Me)2)-T-7MeW-K(NMeAc)-Pen(3)-APEG3F-2Nal-THP-K(NMeAc)-N-3Pya-Sar-CON(Me)2] ({Decanoyl(3,6,9-trioxa)}-[X24][Pen]D(NMe2)T[Trp(7-Me)][Lys(Me)](Ac)[Pen]Y(CH2CH2OCH2CH2OCH2CH2NMe3+)[2Nal][Thp][Lys(Me)](Ac)N[3Pal][Sar]-NMe2; disulfide 2-7), for which the EPSA in data set [1] worked out at 136 A^2. The IC50 on IL-23R was determined as 4.1 nM.
Taken in the same sequence, the figures for `CC(=O)NCCCC[C@@H]1NC(=O)[C@H](Cc2c[nH]c3c(C)cccc23)NC(=O)[C@H]([C@@H](C)O)NC(=O)[C@H](CC(N)=O)NC(=O)[C@@H](NC(=O)CCOCCOCC[N+](C)(C)C)C(C)(C)SSC(C)(C)[C@@H](C(=O)N[C@@H](Cc2ccc(-n3cc(CCN)nn3)cc2)C(=O)N[C@@H](Cc2ccc3ccccc3c2)C(=O)NC2(C(=O)N[C@@H](CCCCNC(C)=O)C(=O)N[C@@H](CC(N)=O)C(=O)N[C@@H](Cc3cccnc3)C(=O)N(C)CC(N)=O)CCOCC2)NC1=O` [compound 522, cPEG3aCO-Pen(3)-N-T-7MeW-K(Ac)-Pen(3)-F(4TzlAme2)-2Nal-THP-K(Ac)-N-3Pya-Sar-CONH2] ({Me3N+(CH2)2O(CH2)2O(CH2)2CO}-[Pen]NT[Trp(7-Me)]K(Ac)[Pen][X39][2Nal][Thp]K(Ac)N[3Pal][Sar]-NH2; disulfide 1-6) were 176 A^2 and 1.6 nM.
`CCCC[N+](CCCC)(CCCC)CCOCCOCCOc1ccc(C[C@H](NC(=O)[C@H]2NC(=O)[C@H](CCCCN(C)C(C)=O)NC(=O)[C@H](Cc3c[nH]c4c(C)cccc34)NC(=O)[C@H]([C@@H](C)O)NC(=O)[C@H](CC(=O)N(C)C)NC(=O)[C@@H](NC(=O)CCOCCOCC[N+](C)(C)C)C(C)(C)SSC2(C)C)C(=O)N[C@@H](Cc2ccc3ccccc3c2)C(=O)NC2(C(=O)N[C@@H](CCCCN(C)C(C)=O)C(=O)N[C@@H](CC(N)=O)C(=O)N[C@@H](Cc3cccnc3)C(=O)N(C)CC(=O)N(C)C)CCOCC2)cc1` [compound 263, cPEG3aCO-Pen(3)-N(N(Me)2)-T-7MeW-K(NMeAc)-Pen(3)-TBAPEG3F-2Nal-THP-K(NMeAc)-N-3Pya-Sar-CON(Me)2] ({Me3N+(CH2)2O(CH2)2O(CH2)2CO}-[Pen]D(NMe2)T[Trp(7-Me)][Lys(Me)](Ac)[Pen]Y(X50)[2Nal][Thp][Lys(Me)](Ac)N[3Pal][Sar]-NMe2; disulfide 1-6 (inferred)): the EPSA in data set [1] came out at 140 A^2. In addition, on IL-23R, the IC50 stood at 5 nM.
Regarding `COCCOCCOCC(=O)NCC[N+](C)(C)CC(=O)N[C@@H]1C(=O)N[C@@H](CC(=O)N(C)C)C(=O)N[C@@H]([C@@H](C)O)C(=O)N[C@@H](Cc2c[nH]c3c(C)cccc23)C(=O)N[C@@H](CCCCN(C)C(C)=O)C(=O)N[C@H](C(=O)N[C@@H](Cc2ccc(OCCN)cc2)C(=O)N[C@@H](Cc2ccc3ccccc3c2)C(=O)NC2(C(=O)N[C@@H](CCCCNC(C)=O)C(=O)N[C@@H](CC(N)=O)C(=O)N[C@@H](Cc3cccnc3)C(=O)N(C)CC(N)=O)CCOCC2)C(C)(C)SSC1(C)C` [compound 148, mPEG3CO-SP6-Pen(3)-N(N(Me)2)-T-7MeW-K(NMeAc)-Pen(3)-AEF-2Nal-THP-K(Ac)-N-3Pya-Sar-CONH2] ({Decanoyl(3,6,9-trioxa)}-[X24][Pen]D(NMe2)T[Trp(7-Me)][Lys(Me)](Ac)[Pen][AEF][2Nal][Thp]K(Ac)N[3Pal][Sar]-NH2; disulfide 2-7), in data set [1], the EPSA was found to be 153 A^2. Also, the IC50 on IL-23R is 2.6 nM.
Turning to `COCCOCCOCC[N+](C)(C)CCc1cn(C[C@H](NC(=O)[C@H]2NC(=O)[C@H](CCCCN(C)C(C)=O)NC(=O)[C@H](Cc3c[nH]c4c(C)cccc34)NC(=O)[C@H]([C@@H](C)O)NC(=O)[C@H](CC(=O)N(C)C)NC(=O)[C@@H](NC(=O)CCOCCOCC[N+](C)(C)C)C(C)(C)SSC2(C)C)C(=O)N[C@@H](Cc2ccc3ccccc3c2)C(=O)NC2(C(=O)N[C@@H](CCCCN(C)C(C)=O)C(=O)N[C@@H](CC(N)=O)C(=O)N[C@@H](Cc3cccnc3)C(=O)N(C)CC(=O)N(C)C)CCOCC2)nn1` [compound 289, cPEG3aCO-Pen(3)-N(N(Me)2)-T-7MeW-K(NMeAc)-Pen(3)-TzlChmPEG3-2Nal-THP-K(NMeAc)-N-3Pya-Sar-CON(Me)2], in data set [1], the EPSA was 142 A^2. For the same molecule, at IL-23R, the IC50 was 79 nM.
Regarding `CC(=O)NCCCC[C@@H]1NC(=O)[C@H](Cc2c[nH]c3ccccc23)NC(=O)[C@H]([C@@H](C)O)NC(=O)[C@H](CC(N)=O)NC(=O)[C@@H](NC(=O)[C@@H](CCCNC(=N)N)NC(=O)CCOCCOCC[N+](C)(C)C)CCSC[C@@](C)(C(=O)N[C@@H](Cc2ccc(OCCCCC[N+](C)(C)C)cc2)C(=O)N[C@@H](Cc2ccc3ccccc3c2)C(=O)NC2(C(=O)N[C@@H](CCCCNC(C)=O)C(=O)N[C@@H](CC(N)=O)C(=O)N[C@@H](Cc3cccnc3)C(=O)N(C)CC(N)=O)CCOCC2)NC1=O` [compound 518, cPEG3aCO-r-Abu(1)-N-T-W-K(Ac)-aMeC(1)-TMAPF-2Nal-THP-K(Ac-N-3Pya-Sar-CONH2] ({Me3N+(CH2)2O(CH2)2O(CH2)2CO}-[dR][Abu(4-yl)]NTWK(Ac)[αMeC]Y(X3)[2Nal][Thp]K(Ac)N[3Pal][Sar]-NH2; thioether 2-7), the EPSA in data set [1] was determined as 230 A^2. Further, the IC50 on IL-23R came out at 18 nM.
On the same counts, the results for `Cc1cccc2c(C[C@@H]3NC(=O)[C@H]([C@@H](C)O)NC(=O)[C@H](CC(=O)N(C)C)NC(=O)[C@@H](NC(=O)CCOCCOCCOCCOCC[N+](C)(C)C)C(C)(C)SSC(C)(C)[C@@H](C(=O)N[C@@H](Cc4ccc(OCCN)cc4)C(=O)N[C@@H](Cc4ccc5ccccc5c4)C(=O)NC4(C(=O)N[C@@H](CCN(C)C(=O)COCCOCC[N+](C)(C)C)C(=O)N[C@@H](CC(N)=O)C(=O)N[C@@H](Cc5cccnc5)C(=O)N(C)CC(=O)N(C)C)CCOCC4)NC(=O)[C@H](CCN(C)C(=O)COCCOCC[N+](C)(C)C)NC3=O)c[nH]c12` [compound 172, cPEG5aCO-Pen(3)-N(N(Me)2)-T-7MeW-Dab(NMecPEG2a)-Pen(3)-AEF-2Nal-THP-Dab(NMecPEG2a)-N-3Pya-Sar-CON(Me)2] ({Me3N+CH2CH2(OCH2CH2)4CO}-[Pen]D(NMe2)T[Trp(7-Me)][X1](X5)[Pen][AEF][2Nal][Thp][X1](X5)N[3Pal][Sar]-NMe2; disulfide 1-6) are 145 A^2 and 6.5 nM.
